From patent US12673975B2, “Cyclic peptide, cell scaffold material, cell separating material, and medium” (FUJIFILM Corporation, priority 2019, dated 2026) come the findings set out here.

Each structure is given as a SMILES string. Like-named read-outs stand apart in the source and are kept apart here. Starred links: 1 amine or outer side, 2 acyl side, 3 side chain; linkers in the order of their positions; H or OH if unused. Positions of bridges follow the written chain, without caps; N, C: chain ends. Non-standard residues stand in square brackets, D forms with d. Residues, ends and D or L forms follow the SMILES beside them. Pen = CC(C)(S)[C@H](N)C(=O)O; hCys = N[C@@H](CCS)C(=O)O; Orn = NCCC[C@H](N)C(=O)O; Dab = NCC[C@H](N)C(=O)O; X1 = O=C(C[*:2])[*:1]; X2 = O=C(C[*:1])[*:2]

The nature of series [1]: Evaluation of molecule stability (alkali treatment, residual rate by LC/MS). It counts as physicochemical. Conditions: for Stability (molecule stability, residual rate of the cyclic peptide rank): alkali treatment, residual rate by LC/MS; for Performance evaluation: Stability (residual rate of cyclic peptide after alkali treatment): 500 μM peptide aqueous solution plus equivalent of 1 M sodium hydroxide, 15° C., 3 hours, LC/MS peak area. The protocol: The molecule stability of the cyclic peptide was evaluated by analyzing the alkali-treated cyclic peptide aqueous solution by liquid chromatography mass spectroscopy (LC/MS).
The alkali treatment was carried out by the following method. A 500 μM cyclic peptide aqueous solution was prepared, an equivalent of 1 M sodium hydroxide aqueous solution was added to this aqueous solution, and the resultant mixture was incubated at 15° C. for 3 hours to obtain an alkali-treated cyclic peptide aqueous solution. The cyclic peptide residual rate was calculated by setting the total area of all peaks of the cyclic peptide before alkali treatment in LC/MS to 100% and determining the proportion of the total area of all peaks in LC/MS of the alkali-treated cyclic peptide aqueous solution, and the molecule stability was evaluated according to the following evaluation standards. It is preferable that the evaluation result satisfies the evaluation standard A, B, or C.
The conditions of the LC/MS used for the evaluation of molecule stability were set as follows. • LC apparatus: Prominence series (pump, column oven, autosampler, detector) (manufactured by Shimadzu Corporation) • MS detector: LC/MS2010EV (manufactured by Shimadzu Corporation) • Column: Cadenza CD-C18, inner diameter 2.0 mm×length 250 mm, particle size: 3 μm (manufactured by Imtakt Corporation) • Eluent A: a solution (pH 3) containing 10 mM ammonium formate as a solute, where the solvent is 100% water. • Eluent B: a solution (pH 3) containing 10 mM ammonium formate as a solute, where the solvent is acetonitrile/water=90/10. • Flow rate: 0.2 mL/min • Injection volume: 4 μL • Gradient: 0% to 30%: Eluent B (0 to 30 minutes), 100%: Eluent B (30 to 40 minutes), 0%: Eluent B (40 to 60 minutes) • Column temperature: 45° C. • Ionization method: electrospray ionization (ESI) positive, ESI negative

A further series has as its target human integrin αvβ5 (Homo sapiens, UniProt P06756+P18084). Briefly: Evaluation of integrin binding property (surface plasmon resonance, Biacore 3000, immobilized cyclic peptide). The protocol:
A commercially available CMS (a carboxymethyl dextran introduction type, manufactured by GE Healthcare) sensor chip was set in Biacore 3000, which is a surface plasmon resonance apparatus manufactured by GE Healthcare, the sensor was stabilized at a flow rate of 10 μL/min of a HEPES (4-(2-hydroxyethyl)-1-piperazineethanesulfonic acid) buffer solution (20 mM HEPES-HCl, 150 mM NaCl, pH 7.4) for surface plasmon resonance (SPR), and 70 μL of a mixed aqueous solution of 0.2 M 1-(3-dimethylaminopropyl)-3-ethylcarbodiimide (EDC) and 0.04 M N-hydroxysuccinimide (NHS) was added thereto. Here, the concentration unit M represents mol/L, and the same applies hereinafter. Then, 20 μL of the sample solution of each of the above cyclic peptides diluted to 0.2 g/L with the HEPES buffer solution was supplied to the sensor chip, blocking treatment was subsequently carried out with an ethanolamine solution, and washing was carried out with a sodium hydroxide aqueous solution, whereby immobilization was carried out. However, only for the cyclic peptides 125, 126, and 127, in which the number of lysine residues having an amino group as the immobilizing functional group was zero, the amount of the sample solution to be supplied to the sensor chip was set to 500 μL instead of 20 μL. Further, 70 μL of the mixed aqueous solution of 0.2 M EDC and 0.04 M NHS was added to another flow channel of the same sensor chip without immobilizing the sample, and then blocking treatment and washing treatment were carried out. Hereinafter, the obtained immobilization-treated sensor chip is referred to as an “immobilization-treated sensor chip A”.
After adding human integrin αvβ5 for 10 minutes at 25° C., which was diluted to 30 nM using a HEPES buffer solution to which magnesium chloride was added to 5 mM, in each flow channel of the immobilization-treated sensor chip A prepared in (1) above, the same HEPES buffer solution (containing 5 mM magnesium chloride) was allowed to flow as a running buffer for 30 minutes, and measurement was carried out with Biacore 3000. Then, a regeneration treatment of removing human integrin αvβ5 was carried out by allowing a 0.5 M EDTA aqueous solution to flow through each flow channel for 10 minutes. Further, the above-described measurement process consisting of adding integrin for 10 minutes, allowing a running buffer to flow for 30 minutes, carrying out measurement with Biacore 3000, and carrying out regeneration treatment with 0.5 M EDTA aqueous solution was carried out in the same manner for 100 nM human integrin αvβ5, 300 nM human integrin αvβ5, and 1,000 nM human integrin αvβ5. Dissociation constant between the cyclic peptide and human integrin αvβ5 was calculated from the difference between the value measured by Biacore 3000 in the flow channel immobilized with the cyclic peptide and the value measured by Biacore 3000 in the flow channel unimmobilized with the cyclic peptide, in a case where each concentration of human integrin αvβ5 was allowed to flow, and the integrin binding property was evaluated according to the following evaluation standards. It is preferable that the evaluation result satisfies the evaluation standard A, B, or C.
For orientation: SPR reads the build-up and loss of mass on a sensor chip optically.

Setting [2] is: surface plasmon resonance, immobilized cyclic peptide, human integrin αvβ5, read-out: Binding activity (integrin binding property, dissociation constant rank).
Setting [3] is: SPR, 25° C., HEPES buffer with 5 mM magnesium chloride, integrin 30-1,000 nM, read-out: Performance evaluation: Binding activity (dissociation constant between the cyclic peptide and human integrin αvβ5).

Chain of human integrin αvβ5 (P06756 31-1048): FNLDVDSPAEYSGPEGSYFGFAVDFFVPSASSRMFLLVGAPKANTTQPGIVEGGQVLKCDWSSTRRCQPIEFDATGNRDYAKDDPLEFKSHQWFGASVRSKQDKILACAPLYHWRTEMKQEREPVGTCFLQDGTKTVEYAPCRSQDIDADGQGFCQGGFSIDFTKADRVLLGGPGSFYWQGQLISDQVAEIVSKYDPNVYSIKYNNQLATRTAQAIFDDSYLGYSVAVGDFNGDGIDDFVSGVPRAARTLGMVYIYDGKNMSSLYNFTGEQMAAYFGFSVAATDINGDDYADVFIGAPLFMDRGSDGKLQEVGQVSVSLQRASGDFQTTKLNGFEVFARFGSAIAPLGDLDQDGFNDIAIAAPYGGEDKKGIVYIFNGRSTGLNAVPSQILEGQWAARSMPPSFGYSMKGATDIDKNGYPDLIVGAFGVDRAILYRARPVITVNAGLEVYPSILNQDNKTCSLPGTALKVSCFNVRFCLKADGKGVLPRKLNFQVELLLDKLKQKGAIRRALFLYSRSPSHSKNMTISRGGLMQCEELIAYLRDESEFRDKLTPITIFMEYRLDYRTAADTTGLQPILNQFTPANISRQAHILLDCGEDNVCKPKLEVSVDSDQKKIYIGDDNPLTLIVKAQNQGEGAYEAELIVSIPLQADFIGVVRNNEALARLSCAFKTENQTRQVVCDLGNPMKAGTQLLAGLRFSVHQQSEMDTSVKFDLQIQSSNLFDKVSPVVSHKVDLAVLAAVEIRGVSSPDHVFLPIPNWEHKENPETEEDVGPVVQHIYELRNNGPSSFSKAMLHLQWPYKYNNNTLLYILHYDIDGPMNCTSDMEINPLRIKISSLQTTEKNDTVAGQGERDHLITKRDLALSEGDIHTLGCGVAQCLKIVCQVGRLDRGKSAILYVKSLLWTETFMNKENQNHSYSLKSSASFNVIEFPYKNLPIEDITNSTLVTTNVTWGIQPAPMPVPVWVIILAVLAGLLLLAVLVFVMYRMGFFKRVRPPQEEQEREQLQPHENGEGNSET
Chain of human integrin αvβ5 (P18084 24-799): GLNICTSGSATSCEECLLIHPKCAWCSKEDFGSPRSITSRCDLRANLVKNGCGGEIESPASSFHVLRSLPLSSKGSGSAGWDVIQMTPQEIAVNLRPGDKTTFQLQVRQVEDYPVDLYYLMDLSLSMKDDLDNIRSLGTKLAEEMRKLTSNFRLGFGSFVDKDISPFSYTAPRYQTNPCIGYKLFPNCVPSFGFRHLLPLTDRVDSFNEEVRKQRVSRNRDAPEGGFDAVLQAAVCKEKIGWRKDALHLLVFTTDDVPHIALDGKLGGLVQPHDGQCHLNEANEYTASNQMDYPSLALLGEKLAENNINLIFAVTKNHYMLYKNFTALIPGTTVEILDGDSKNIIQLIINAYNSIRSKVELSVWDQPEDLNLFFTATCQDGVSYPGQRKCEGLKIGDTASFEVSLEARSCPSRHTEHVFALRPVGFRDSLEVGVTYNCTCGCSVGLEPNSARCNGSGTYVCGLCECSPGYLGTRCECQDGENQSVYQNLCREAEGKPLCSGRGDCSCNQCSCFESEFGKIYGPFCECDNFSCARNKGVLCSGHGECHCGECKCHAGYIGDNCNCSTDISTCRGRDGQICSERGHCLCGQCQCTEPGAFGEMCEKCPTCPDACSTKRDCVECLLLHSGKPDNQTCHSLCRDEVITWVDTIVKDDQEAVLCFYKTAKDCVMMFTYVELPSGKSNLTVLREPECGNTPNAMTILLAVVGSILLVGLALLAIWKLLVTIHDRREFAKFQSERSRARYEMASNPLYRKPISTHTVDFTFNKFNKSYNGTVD

For the compound `CC[C@H](C)[C@@H]1NC(=O)[C@@H](NC(=O)CNC(=O)[C@H](CCCCN)NC(=O)[C@H](CCCCN)NC(=O)[C@@H](N)CCCCN)CCSCC(=O)NCCCC[C@@H](C(=O)N[C@@H](C)C(=O)O)NC(=O)[C@H](CCCNC(=N)N)NC(=O)[C@H](Cc2ccccc2)NC(=O)[C@H]([C@@H](C)O)NC(=O)[C@H](CC(=O)O)NC(=O)CNC(=O)[C@H](CCCNC(=N)N)NC(=O)[C@@H]2CCCN2C1=O` [Cyclic peptide 116, KKKG-(Hcy)-IPRGDTFR(Lys(acetyl))A] (H-KKKG[hCys]IPRGDTFRKA-OH; linker 5-14 via X2), the “Stability (molecule stability, residual rate of the cyclic peptide rank)” value in series [1] is reported as “A (The residual rate of the cyclic peptide is 70% or more.)”. Also, on human integrin αvβ5 (setting [2]), the Kd was below 50 nM.
Take `N=C(N)NCCC[C@@H]1NC(=O)[C@H](Cc2ccc(O)cc2)NC(=O)[C@H](CC(N)=O)NC(=O)[C@H](CC(=O)O)NC(=O)CNC(=O)[C@H](CCCNC(=N)N)NC(=O)[C@@H]2CCCN2C(=O)[C@H](CCC(=O)O)NC(=O)[C@@H](NC(=O)CNC(=O)[C@H](CCCCN)NC(=O)[C@H](CCCCN)NC(=O)[C@@H](N)CCCCN)CCSCC(=O)NCC[C@@H](C(=O)N[C@@H](CC(=O)O)C(=O)O)NC1=O` [Cyclic peptide 37, KKKG-(Hcy)-EPRGDNYR(Dab(acetyl))D] (H-KKKG[hCys]EPRGDNYR[Dab]D-OH; linker 5-14 via X2): in series [1], the “Performance evaluation: Stability (residual rate of cyclic peptide after alkali treatment)” value is “A (The residual rate of the cyclic peptide is 70% or more.)”. Moreover, the Kd on human integrin αvβ5 (setting [3]) lay in the range of 50 to 100 nM.
Take `C[C@@H]1NC(=O)[C@H](Cc2ccccc2)NC(=O)[C@H]([C@@H](C)O)NC(=O)[C@H](CC(=O)O)NC(=O)CNC(=O)[C@H](CCCNC(=N)N)NC(=O)[C@H]([C@@H](C)O)NC(=O)[C@H]([C@@H](C)O)NC(=O)[C@@H](NC(=O)[C@H](CCCCN)NC(=O)[C@H](CCCCN)NC(=O)[C@@H](N)CCCCN)CCSCC(=O)NCC[C@@H](C(=O)O)NC1=O` [Cyclic peptide 155, KKK-(Hcy)-TTRGDTFA(Dab(acetyl))] (H-KKK[hCys]TTRGDTFA[Dab]-OH; linker 4-13 via X2): the “Stability (molecule stability, residual rate of the cyclic peptide rank)” value in series [1] is reported as “A (The residual rate of the cyclic peptide is 70% or more.)”. Besides, the Kd at human integrin αvβ5 (setting [2]) is below 50 nM.
Consider `CC(C)[C@@H]1NC(=O)[C@@H](NC(=O)CNC(=O)[C@H](CCCCN)NC(=O)[C@H](CCCCN)NC(=O)[C@@H](N)CCCCN)CCSCC(=O)NCC[C@@H](C(=O)NCC(=O)O)NC(=O)[C@H](C)NC(=O)[C@H](Cc2ccccc2)NC(=O)[C@H](CO)NC(=O)[C@H](CC(=O)O)NC(=O)CNC(=O)[C@H](CCCNC(=N)N)NC(=O)[C@@H]2CCCN2C1=O` [Cyclic peptide 99, KKKG-(Hcy)-VPRGDSFA(Dab(acetyl))G] (H-KKKG[hCys]VPRGDSFA[Dab]G-OH; linker 5-14 via X2), for which the “Performance evaluation: Stability (residual rate of cyclic peptide after alkali treatment)” value in series [1] is reported as “A (The residual rate of the cyclic peptide is 70% or more.)”. Moreover, the Kd on human integrin αvβ5 (setting [3]) was below 50 nM.
Regarding `CC[C@H](C)[C@@H]1NC(=O)[C@@H](NC(=O)CNC(=O)[C@H](CCCCN)NC(=O)[C@H](CCCCN)NC(=O)[C@@H](N)CCCCN)C(C)(C)SCC(=O)NCCC[C@@H](C(=O)N[C@@H](C)C(=O)O)NC(=O)[C@H](CCCNC(=N)N)NC(=O)[C@H](Cc2ccccc2)NC(=O)[C@H]([C@@H](C)O)NC(=O)[C@H](CC(=O)O)NC(=O)CNC(=O)[C@H](CCCNC(=N)N)NC(=O)[C@@H]2CCCN2C1=O` [Cyclic peptide 130, KKKG-(Pen)-IPRGDTFR(Orn(acetyl))A] (H-KKKG[Pen]IPRGDTFR[Orn]A-OH; linker 5-14 via X2), the “Stability (molecule stability, residual rate of the cyclic peptide rank)” value in series [1] was “A (The residual rate of the cyclic peptide is 70% or more.)”. The Kd on human integrin αvβ5 (setting [2]) is below 50 nM.
Consider `CC[C@H](C)[C@@H]1NC(=O)[C@@H](NC(=O)[C@H](C)NC(=O)[C@H](CCCCN)NC(=O)[C@H](CCCCN)NC(=O)[C@@H](N)CCCCN)CCSCC(=O)NCC[C@@H](C(=O)N[C@@H](C)C(=O)O)NC(=O)[C@H](CCCNC(=N)N)NC(=O)[C@H](Cc2ccc(O)cc2)NC(=O)[C@H]([C@@H](C)O)NC(=O)[C@H](CC(=O)O)NC(=O)CNC(=O)[C@H](CCCNC(=N)N)NC(=O)[C@@H]2CCCN2C1=O` [Cyclic peptide 81, KKKA-(Hcy)-IPRGDTYR(Dab(acetyl))A] (H-KKKA[hCys]IPRGDTYR[Dab]A-OH; linker 5-14 via X2), for which the “Performance evaluation: Stability (residual rate of cyclic peptide after alkali treatment)” value in series [1] was “A (The residual rate of the cyclic peptide is 70% or more.)”. In addition, the Kd on human integrin αvβ5 (setting [3]) was in the range of 50 to 100 nM.
The matching figures for `CC(C)[C@@H]1NC(=O)[C@@H](NC(=O)[C@H](C)NC(=O)[C@H](CCCCN)NC(=O)[C@H](CCCCN)NC(=O)[C@@H](N)CCCCN)CCSCC(=O)NCC[C@@H](C(=O)N[C@@H](C)C(=O)O)NC(=O)[C@H](C)NC(=O)[C@H](Cc2ccccc2)NC(=O)[C@H](CO)NC(=O)[C@H](CC(=O)O)NC(=O)CNC(=O)[C@H](CCCNC(=N)N)NC(=O)[C@@H]2CCCN2C1=O` [Cyclic peptide 96, KKKA-(Hcy)-VPRGDSFA(Dab(acetyl))A] (H-KKKA[hCys]VPRGDSFA[Dab]A-OH; linker 5-14 via X2): “A (The residual rate of the cyclic peptide is 70% or more.)” and below 50 nM.
With `CC(C)[C@@H]1NC(=O)[C@@H](NC(=O)[C@H](C)N)CCSCC(=O)NCC[C@@H](C(=O)N[C@@H](C)C(=O)N[C@@H](CCCCN)C(=O)N[C@@H](CCCCN)C(=O)N[C@@H](CCCCN)C(=O)O)NC(=O)[C@H](C)NC(=O)[C@H](Cc2ccccc2)NC(=O)[C@H]([C@@H](C)O)NC(=O)[C@H](CC(=O)O)NC(=O)CNC(=O)[C@H](CCCNC(=N)N)NC(=O)[C@@H]2CCCN2C1=O` [Cyclic peptide 109, A-(Hcy)-VPRGDTFA(Dab(acetyl))AKKK] (H-A[hCys]VPRGDTFA[Dab]AKKK-OH; linker 2-11 via X2), the “Stability (molecule stability, residual rate of the cyclic peptide rank)” value in series [1] is “A (The residual rate of the cyclic peptide is 70% or more.)”. Also, the Kd at human integrin αvβ5 (setting [2]) is below 50 nM.
Consider `CC(C)[C@@H]1NC(=O)[C@@H](NC(=O)[C@H](C)NC(=O)[C@H](CCCCN)NC(=O)[C@H](CCCCN)NC(=O)[C@@H](N)CCCCN)CCNC(=O)CSCC[C@@H](C(=O)N[C@@H](C)C(=O)O)NC(=O)[C@H](C)NC(=O)[C@H](Cc2ccccc2)NC(=O)[C@H]([C@@H](C)O)NC(=O)[C@H](CC(=O)O)NC(=O)CNC(=O)[C@H](CCCNC(=N)N)NC(=O)[C@@H]2CCCN2C1=O` [Cyclic peptide 122, KKKA(Dab(acetyl))VPRGDTFA-(Hcy)-A] (H-KKKA[Dab]VPRGDTFA[hCys]A-OH; linker 5-14 via X1), for which the “Stability (molecule stability, residual rate of the cyclic peptide rank)” value in series [1] is “A (The residual rate of the cyclic peptide is 70% or more.)”. The Kd at human integrin αvβ5 (setting [2]) is below 50 nM.
